Laboratory results reported in US8383136B2, “Micelle encapsulation of therapeutic agents” (Wisconsin Alumni Research Foundation, priority 2009, dated 2013).
“And” between values parts separate entries of the source, which are not always exact repeats. Identical values can stand only once. “Also recorded” adds a separate entry of the source.

Experiments:
[1] = Physical stability / drug loss from PEG-b-PLA micelles after 24 hours (turbidity, HPLC); format: physicochemical
Experimental: Turbidity measurements were used to evaluate the physical stability of drug-loaded PEG-b-PLA micelles. A CARY 50 BIO UV-Visible spectrophotometer equipped with dip probe was used to measure turbidity. Micellar solutions were diluted six times, for a final concentration of PEG-b-PLA of 5 mg/mL, with DD H2O and filtered through 0.45 μm filter. […] Each measurement was performed in triplicate.

[2] = Acute toxicity experiments in FVB female albino mice; conditions: PEG-b-PLA micelles, 3 IV injections days 0, 4, 8; paclitaxel 60, 17-AAG 60, rapamycin 30 mg/kg
Experimental: Briefly, acute toxicity experiments were carried out in FVB female albino mice with 3 IV injections on days 0, 4, and 8, measuring body weights and monitoring survival over 12 days (FIG. 21).

[3] = Dynamic light scattering size of SDM and MDM; format: physicochemical; conditions: DLS, drug-loaded SDM or MDM
Experimental: The drug-loaded micellar solutions were diluted 20 times with DD H2O and the samples was equilibrated for 2 min at 25° C. before the measurements. […] The hydrodynamic diameter of PEG-b-PLA micelles was calculated based on the Stokes-Einstein equation. Correlation function was curve fitted by cumulant method to calculate mean size and polydispersion index (PDI). All measurements were repeated three times, and volume-weighted particle sizes were presented as the average diameter with standard deviation.

[4] = Drug solubilization by PEG-b-PLA micelles (drug level in water, reverse phase HPLC); conditions: analyte paclitaxel, SDM or MDM, PEG-b-PLA (4.2K:1.9K) micelles
Experimental: The drug-polymer mixture was dissolved in 0.50 mL acetonitrile (ACN). The ACN was removed at 60° C. under reduced pressure on a rotary evaporator resulting in the formation of a homogenous film, The drug-polymer film was rehydrated with 0.50 mL of DD H2O at 60° C. with gentle agitation resulting in a clear solution of drug-loaded PEG-b-PLA micelles. The micellar solution was filtered using a 0.45 μm filter, and the micelles were characterized in terms of size and loading by Dynamic Light Scattering (DLS) and HPLC respectively.
MDMS were prepared similarly to the SDMs by mixing 2.0 mg of each drug with 15 mg of the polymer. The procedure for the preparation and characterization of these micelles was identical to the SDMs.
The content of drug loaded in PEG-b-PLA micelles was quantified by reverse phase HPLC. The HPLC system used for quantifying was a Shimadzu prominence HPLC system (Shimadzu, JP), consisting of a LC-20AT pump, SIL-20AC HT autosampler, CTO-20AC column oven and a SPD-M20A diode array detector. A sample of 10 μL was injected into a Zorbax SB-C8 Rapid Resolution cartridge (4.6×75 mm, 3.5 micron, Agilent). The column temperature was maintained at 40° C. throughout the run. Two HPLC methods were developed to quantify the amount of the drug(s) loaded in PEG-b-PLA micelles.
The mobile phase was an isocratic mixture of 45% ACN and 54% aqueous phase containing 0.1% phosphoric acid and 1% methanol in DD H2O.
The mobile phase was a gradient mixture of ACN and aqueous phase containing 0.1% phosphoric acid and 1% methanol in DD H2O. […] With both HPLC methods samples were injected twice and reproducible and rapid separation of the drugs was achieved.
Mn of PEG and PLA of PEG-b-PLA was 4,200 and 1,900 g/mol, respectively (APC Inc., UK). ACN was removed by heating at 60° C. and reduced pressure. The resultant dry polymer film containing anti-cancer agent(s) was dissolved by addition of water (0.50 mL) at 60° C. with gentle agitation.
The resultant dry PEG-b-PLA film containing drugs was dissolved by the addition of water (0.50 mL) at 60° C. with gentle agitation.

[5] = In vitro drug release from PEG-b-PLA micelles (dialysis method); format: physicochemical; conditions: SDM, dialysis; listed as PTX
Experimental: (§1) SDMs or MDMs were prepared and characterized as described above. Post micelle preparation each sample was diluted with DD H2O, to yield about 0.10 mg/mL of each drug. A volume of 2.5 mL of the prepared sample was loaded into a 3 mL Slide-A-Lyzer® (Thermo Scientific Inc.) dialysis cassette with a MWCO of 20,000 g/mol. Four cassettes were used in each experiment. The cassettes were placed in 2.0 L of buffer which was changed every 3 hours to ensure sink conditions for drug(s) and polymer. A sample of 100 μL was drawn from each cassette at various sampling time intervals and then replaced with 100 μL of fresh buffer. […] The amount of drug(s) in each sample was quantified by HPLC as described above.
Statistical analysis was performed using one-way ANOVA at 5% significance level combined with Tukey's Multiple Comparison Test or t-test at 5% significance level. Curve-fitting analysis using one phase exponential association was used to calculate the half-life (t1/2) of drug in in vitro drug release experiments. Both analyses were performed using GraphPad Prism version 5.00 for Windows, Graph-Pad Software, San Diego Calif. USA, www.graphpad.com.
as §1, with “Post-micelle preparation,” for “Post micelle preparation”, “yield samples of” for “yield”, “reverse phase HPLC.” for “HPLC as described above.”

[6] = % drug loading of PEG-b-PLA micelles (wt drug(s)/wt polymer); format: physicochemical; conditions: all drugs of the SDM or MDM together, PEG-b-PLA (4.2K:1.9K) micelles
Experimental: Drug(s) to polymer w/w percent was calculated for SDM and MDM. PEG-b-PLA micelles were freeze dried, weighed and the amount of drug(s) in the freeze dried sample was quantified by HPLC. The drug w/w percent was calculated as the mass of the drug(s) to the mass of polymer in the freeze dried sample multiplied by 100.

[7] = system: MCF-7 human breast cancer cells; assay: In vitro cytotoxicity, resazurin assay, and combination index; format: cell-based; conditions: Homo sapiens, MCF7, 72 h; read-out: IC50
Experimental: (§2) MCF-7 human breast cancer cells were cultured in DMEM medium while 4T1 murine breast cancer cells, A549 human non-small cell lung cancer cells, and LS180 human colon cancer cells were cultured in RPMI1640 medium. Both media were supplemented with 10% fetal bovine serum (FBS) with antibiotics under 5% CO2 and 37° C. in an incubator. […] Free drugs were dissolved in DMSO, and drug-loaded PEG-b-PLA micelles were in deionized water. The samples were diluted with cell culture media to make 0.10, 1.0, 10, 100 and 1000 nM in 96 well plates. […] The metabolic conversion of resazurin dye by each viable cancer cell was quantified using a fluorescence cell plate reader (SpectraMax M2, Molecular Devices, USA) to estimate cell viability. […] IC50 values of free drugs and drug-loaded PEG-b-PLA micelles were calculated based on median-effect equation using Compusyn software (ver. 1.0).
(§3) CI values were obtained at IC50 values for 2- or 3-drug combinations. CI<1, C=1, and CI>1 were used as criteria to determine whether 2- or 3-drug combinations are synergistic, additive, and antagonistic, respectively (FIGS. 13-20).

[8] = system: A549 human non-small cell lung cancer cells; assay: as above; format: cell-based; conditions: drug(s) in SDM or MDM, 72 hours, unit inferred, PTX/17-AAG 4.7:1, RAP/17-AAG 1:1, RAP/PTX 1:1, RAP/PTX/17-AAG 1:5:1, read-out: IC50
Experimental: as §2, §3

[9] = system: 4T1 murine breast cancer cells; assay: as above; format: cell-based; conditions: drug(s) in SDM or MDM, 72 hours, unit inferred, PTX/17-AAG 4.7:1, RAP/17-AAG 1:1, RAP/PTX 1:1, RAP/PTX/17-AAG 1:5:1, read-out: IC50
Experimental: as §2, with “The samples were diluted with cell culture media to make 0.10, 1.0, 10, 100 and 1000 nM in 96 well plates.” left out
as §3

[10] = without micelles; cited from earlier work
[11] = system: H-358 human non-small-cell lung cancer xenografts; conditions: combined with 17-AAG; cited from earlier work
[12] = analyte paclitaxel, PEG-b-PLA micelles

In the case of CC(=O)O[C@H]1C(=O)[C@@]2(C)[C@H]([C@H](OC(=O)c3ccccc3)[C@]3(O)C[C@H](OC(=O)[C@H](O)[C@@H](NC(=O)c4ccccc4)c4ccccc4)C(C)=C1C3(C)C)[C@]1(OC(C)=O)CO[C@@H]1C[C@@H]2O [Paclitaxel], the “drug precipitated at 24 hours” value ([1]; SDM, HPLC data) is reported as “approximately 84%”, the “% w/w drug(s) left @ 24 hr” value [1, 12] is reported as 16.2 ± 1.0 % w/w and the “initial drug level in water” value [1, 12] is reported as 3.54 ± 0.32 mg/mL. The “drug level @ 24 hr in water” value ([1]; analyte paclitaxel, PEG-b-PLA micelles, 24 hr) was 0.57 ± 0.07 mg/mL, the “time the micelles were physically stable” value ([1]; turbidity, ambient temperature) was “approximately 6 hours” and the acute toxicity [2] was “low”. For the same compound, the PEG-b-PLA micelle diameter [3] was 38.8 ± 0.6 nm, the “drug level in water” value [4] was 3.54 ± 0.32 mg/mL and the “drug level in water” value ([4]; listed as PTX) was 3.50 mg/mL. For the same compound, the “behaviour of PTX during the release test” value [5] was “Rapid precipitation; also recorded: precipitated during release”, the “% drug loading (wt. drug(s)/wt. polymer)” value [6] was 11.8 ± 1.1% and 10.3 ± 0.9% and the “% drug loading (wt. drug(s)/wt. polymer)” value ([6]; listed as PTX) was 10.3%. The IC50 [7] was 226 ± 32 nM, the IC50 [8] was 397 ± 59 nM and the IC50 [9] was 11.2 ± 4.16 µM. The “solubility of paclitaxel in water” value [10] was “approximately 1 μg/mL” and the “enhancement of PTX cytotoxicity” value [11] was 5-22 fold.
